What was measured:
[1] = tested on: Hs817T; assay: Cell Titer-Glo viability, Hs817T; format: cell-based, human; conditions: 5 μM
Protocol: (§1) The efficacy of compound 47 against HCC proliferation was tested on a wider panel of HCC cell lines: Hep3B ([…]), Hs817T (▪), PLC/PRF/5 (▴) and SK-Hep 1 (▾), as determined by Cell Titer-Glo assay.
(§2) Cells were plated at 5000-7000 cells/per well and incubated for 24 h before treatment. […] Cell Titer-Glo (Promega, Madison, Wis.) assay was performed according to manufacturer's instruction with luminescence detected on SpectraMax M5 (Molecular Devices, Sunnyvale, Calif.). Data was expressed as percentage of viability vs. vehicle-treated controls.
(§3) Accordingly, Compound 47 was screened against a larger panel of 4 additional HCC cell lines.

[2] = tested on: Hep3B, Hs817T, PLC/PRF/5 and SK-Hep 1; assay: Cell Titer-Glo viability, panel of 4 additional HCC cell lines; format: cell-based, human
Protocol: as §1, §2, §3

[3] = biological target: T1, Insulin R (Homo sapiens, UniProt P06213); assay: Human phospho-RTK array, HuH7: Insulin R; format: cell-based; conditions: 24 h, untreated 0.74
T1 construct: endogenous in cells; host or cells: HuH7
T1 sequence (P06213 28-1382): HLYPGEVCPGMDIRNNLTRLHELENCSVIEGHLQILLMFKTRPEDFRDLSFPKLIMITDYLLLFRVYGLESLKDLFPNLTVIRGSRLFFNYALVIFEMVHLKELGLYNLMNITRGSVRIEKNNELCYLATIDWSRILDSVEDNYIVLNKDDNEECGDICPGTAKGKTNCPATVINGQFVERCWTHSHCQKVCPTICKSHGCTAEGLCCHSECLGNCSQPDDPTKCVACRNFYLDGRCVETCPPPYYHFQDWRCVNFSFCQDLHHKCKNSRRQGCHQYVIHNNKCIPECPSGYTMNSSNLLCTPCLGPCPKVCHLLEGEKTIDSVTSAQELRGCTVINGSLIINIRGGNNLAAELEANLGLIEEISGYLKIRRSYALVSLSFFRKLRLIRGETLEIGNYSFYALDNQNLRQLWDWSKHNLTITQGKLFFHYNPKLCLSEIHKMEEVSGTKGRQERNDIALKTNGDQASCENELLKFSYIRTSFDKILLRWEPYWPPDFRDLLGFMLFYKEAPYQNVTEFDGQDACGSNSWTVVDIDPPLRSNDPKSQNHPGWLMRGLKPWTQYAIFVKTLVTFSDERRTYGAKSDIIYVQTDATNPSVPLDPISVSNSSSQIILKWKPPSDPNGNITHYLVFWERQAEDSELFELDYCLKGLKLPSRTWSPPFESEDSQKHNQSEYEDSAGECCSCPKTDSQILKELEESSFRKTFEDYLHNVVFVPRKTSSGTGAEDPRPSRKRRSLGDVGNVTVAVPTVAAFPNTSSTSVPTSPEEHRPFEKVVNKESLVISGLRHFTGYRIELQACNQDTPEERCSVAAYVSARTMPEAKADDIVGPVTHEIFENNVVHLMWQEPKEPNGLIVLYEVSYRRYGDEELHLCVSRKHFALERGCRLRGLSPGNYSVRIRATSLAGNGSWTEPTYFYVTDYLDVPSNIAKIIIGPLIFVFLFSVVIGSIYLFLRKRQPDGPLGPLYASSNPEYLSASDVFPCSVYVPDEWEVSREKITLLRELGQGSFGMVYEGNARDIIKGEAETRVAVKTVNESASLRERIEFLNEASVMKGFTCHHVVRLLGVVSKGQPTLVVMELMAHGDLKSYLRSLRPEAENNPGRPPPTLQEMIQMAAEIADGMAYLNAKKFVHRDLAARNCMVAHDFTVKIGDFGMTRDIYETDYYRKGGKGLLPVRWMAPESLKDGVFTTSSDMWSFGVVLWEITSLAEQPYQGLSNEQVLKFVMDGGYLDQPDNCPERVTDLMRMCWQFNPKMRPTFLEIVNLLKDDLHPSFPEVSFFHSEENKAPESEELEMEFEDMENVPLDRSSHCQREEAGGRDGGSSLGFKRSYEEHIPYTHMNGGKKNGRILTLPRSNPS
Protocol: (§4) Kinase phosphorylation changes were determined with human phospho-RTK array.
(§5) Cells harvesting, hybridization with RTK array and incubation with anti-phosphotyrosine were performed according to manufacturer's instruction. Imaging and quantification of the spots intensities was with Fujifilm LAS-3000 (Tokyo, Japan). Average signal of the duplicate spots for each RTK was determined.

[4] = biological target: T2, EphA2 (Homo sapiens, UniProt P29317); assay: Human phospho-RTK array, HuH7: EphA2; format: cell-based; conditions: 24 h, untreated 0.07
T2 construct: we examined the constitutively phosphorylated IGF-1R, EphA2 and Tyro3; endogenous in cells; host or cells: HuH7
T2 sequence (P29317 24-976): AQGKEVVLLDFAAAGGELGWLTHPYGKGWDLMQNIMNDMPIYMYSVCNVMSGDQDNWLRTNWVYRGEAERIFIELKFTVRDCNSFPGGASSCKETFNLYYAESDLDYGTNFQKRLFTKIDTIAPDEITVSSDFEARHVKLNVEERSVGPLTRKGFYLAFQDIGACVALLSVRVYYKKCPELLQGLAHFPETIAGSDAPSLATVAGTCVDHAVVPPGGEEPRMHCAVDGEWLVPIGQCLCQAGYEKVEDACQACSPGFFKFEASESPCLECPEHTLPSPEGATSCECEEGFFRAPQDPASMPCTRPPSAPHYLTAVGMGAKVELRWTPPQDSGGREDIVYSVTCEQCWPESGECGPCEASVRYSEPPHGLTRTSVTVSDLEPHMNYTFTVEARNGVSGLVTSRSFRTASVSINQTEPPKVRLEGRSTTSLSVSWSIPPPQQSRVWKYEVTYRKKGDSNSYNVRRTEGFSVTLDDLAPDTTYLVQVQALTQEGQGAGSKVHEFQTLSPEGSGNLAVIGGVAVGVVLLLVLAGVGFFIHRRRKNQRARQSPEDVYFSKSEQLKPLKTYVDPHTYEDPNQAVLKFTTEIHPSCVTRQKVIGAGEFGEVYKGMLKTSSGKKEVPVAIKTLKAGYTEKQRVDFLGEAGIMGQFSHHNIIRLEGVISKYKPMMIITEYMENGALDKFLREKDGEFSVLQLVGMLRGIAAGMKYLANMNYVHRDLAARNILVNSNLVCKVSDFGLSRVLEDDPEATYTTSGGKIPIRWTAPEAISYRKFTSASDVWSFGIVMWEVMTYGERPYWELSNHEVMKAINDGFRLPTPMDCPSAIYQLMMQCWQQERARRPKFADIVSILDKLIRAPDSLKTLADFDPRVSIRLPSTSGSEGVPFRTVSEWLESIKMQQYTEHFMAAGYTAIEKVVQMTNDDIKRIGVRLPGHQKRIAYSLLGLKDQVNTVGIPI
Protocol: as §4, §5

[5] = biological target: T3, Ron (Homo sapiens, UniProt Q04912); assay: Human phospho-RTK array, HuH7: Ron; format: cell-based; conditions: 24 h, untreated 0.04
T3 construct: endogenous in cells; host or cells: HuH7
T3 sequence (Q04912 25-1400): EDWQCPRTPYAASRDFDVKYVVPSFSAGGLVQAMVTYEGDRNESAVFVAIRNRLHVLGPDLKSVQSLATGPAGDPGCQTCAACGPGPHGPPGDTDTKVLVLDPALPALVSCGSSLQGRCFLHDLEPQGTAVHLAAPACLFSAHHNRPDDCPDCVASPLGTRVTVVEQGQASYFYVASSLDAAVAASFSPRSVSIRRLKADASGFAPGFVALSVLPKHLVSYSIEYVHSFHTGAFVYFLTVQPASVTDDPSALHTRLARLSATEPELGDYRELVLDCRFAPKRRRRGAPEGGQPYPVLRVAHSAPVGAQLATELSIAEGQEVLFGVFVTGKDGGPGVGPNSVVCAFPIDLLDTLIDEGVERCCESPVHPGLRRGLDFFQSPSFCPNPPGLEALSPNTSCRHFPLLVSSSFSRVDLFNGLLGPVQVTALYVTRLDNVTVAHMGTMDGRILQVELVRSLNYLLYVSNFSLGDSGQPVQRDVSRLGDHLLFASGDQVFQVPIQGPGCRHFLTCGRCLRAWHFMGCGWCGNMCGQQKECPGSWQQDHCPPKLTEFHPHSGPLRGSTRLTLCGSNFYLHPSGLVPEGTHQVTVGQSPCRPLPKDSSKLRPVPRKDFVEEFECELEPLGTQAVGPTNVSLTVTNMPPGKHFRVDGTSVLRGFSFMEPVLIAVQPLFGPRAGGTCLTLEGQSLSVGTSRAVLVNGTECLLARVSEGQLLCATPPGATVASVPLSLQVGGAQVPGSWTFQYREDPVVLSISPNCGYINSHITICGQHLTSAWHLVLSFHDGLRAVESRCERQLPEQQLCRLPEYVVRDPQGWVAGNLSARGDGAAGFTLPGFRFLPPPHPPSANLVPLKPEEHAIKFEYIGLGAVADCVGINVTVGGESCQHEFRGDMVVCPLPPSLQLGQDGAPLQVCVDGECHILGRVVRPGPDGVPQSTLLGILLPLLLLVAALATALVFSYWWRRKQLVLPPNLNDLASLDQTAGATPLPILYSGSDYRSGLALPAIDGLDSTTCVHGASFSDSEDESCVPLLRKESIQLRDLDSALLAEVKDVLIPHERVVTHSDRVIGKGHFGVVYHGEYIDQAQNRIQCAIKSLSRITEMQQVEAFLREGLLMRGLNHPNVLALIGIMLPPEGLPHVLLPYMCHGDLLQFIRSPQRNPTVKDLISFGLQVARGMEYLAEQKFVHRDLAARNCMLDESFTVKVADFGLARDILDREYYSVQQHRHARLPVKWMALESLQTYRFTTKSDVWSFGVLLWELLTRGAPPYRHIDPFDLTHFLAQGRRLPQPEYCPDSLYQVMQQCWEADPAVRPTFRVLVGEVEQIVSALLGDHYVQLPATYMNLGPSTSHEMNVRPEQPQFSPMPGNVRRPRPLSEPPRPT
Protocol: as §4, §5

[6] = biological target: T4, IGF-1R (Homo sapiens, UniProt P08069); assay: Immunoblot of phospho-IGF-1R in HuH7; format: cell-based; conditions: HuH7, 24 h; Compound 47 1, 5 or 10 μM, sunitinib 10 μM
T4 construct: we examined the constitutively phosphorylated IGF-1R, EphA2 and Tyro3; endogenous in cells; host or cells: HuH7

[7] = biological target: T2, EphA2; assay: Immunoprecipitation / anti-phosphotyrosine blot of EphA2 in HuH7; format: cell-based; conditions: HuH7, 24 h; Compound 47 1, 5 or 10 μM, sunitinib 10 μM
[8] = biological target: T5, EGFR (Homo sapiens, UniProt P00533); format: cell-based
T5 construct: Cells treated similarly were immunoprecipitated with anti-EGFR, anti-EphA2 and anti-Tyro3; endogenous in cells; host or cells: HuH7
T5 sequence (P00533 25-1210): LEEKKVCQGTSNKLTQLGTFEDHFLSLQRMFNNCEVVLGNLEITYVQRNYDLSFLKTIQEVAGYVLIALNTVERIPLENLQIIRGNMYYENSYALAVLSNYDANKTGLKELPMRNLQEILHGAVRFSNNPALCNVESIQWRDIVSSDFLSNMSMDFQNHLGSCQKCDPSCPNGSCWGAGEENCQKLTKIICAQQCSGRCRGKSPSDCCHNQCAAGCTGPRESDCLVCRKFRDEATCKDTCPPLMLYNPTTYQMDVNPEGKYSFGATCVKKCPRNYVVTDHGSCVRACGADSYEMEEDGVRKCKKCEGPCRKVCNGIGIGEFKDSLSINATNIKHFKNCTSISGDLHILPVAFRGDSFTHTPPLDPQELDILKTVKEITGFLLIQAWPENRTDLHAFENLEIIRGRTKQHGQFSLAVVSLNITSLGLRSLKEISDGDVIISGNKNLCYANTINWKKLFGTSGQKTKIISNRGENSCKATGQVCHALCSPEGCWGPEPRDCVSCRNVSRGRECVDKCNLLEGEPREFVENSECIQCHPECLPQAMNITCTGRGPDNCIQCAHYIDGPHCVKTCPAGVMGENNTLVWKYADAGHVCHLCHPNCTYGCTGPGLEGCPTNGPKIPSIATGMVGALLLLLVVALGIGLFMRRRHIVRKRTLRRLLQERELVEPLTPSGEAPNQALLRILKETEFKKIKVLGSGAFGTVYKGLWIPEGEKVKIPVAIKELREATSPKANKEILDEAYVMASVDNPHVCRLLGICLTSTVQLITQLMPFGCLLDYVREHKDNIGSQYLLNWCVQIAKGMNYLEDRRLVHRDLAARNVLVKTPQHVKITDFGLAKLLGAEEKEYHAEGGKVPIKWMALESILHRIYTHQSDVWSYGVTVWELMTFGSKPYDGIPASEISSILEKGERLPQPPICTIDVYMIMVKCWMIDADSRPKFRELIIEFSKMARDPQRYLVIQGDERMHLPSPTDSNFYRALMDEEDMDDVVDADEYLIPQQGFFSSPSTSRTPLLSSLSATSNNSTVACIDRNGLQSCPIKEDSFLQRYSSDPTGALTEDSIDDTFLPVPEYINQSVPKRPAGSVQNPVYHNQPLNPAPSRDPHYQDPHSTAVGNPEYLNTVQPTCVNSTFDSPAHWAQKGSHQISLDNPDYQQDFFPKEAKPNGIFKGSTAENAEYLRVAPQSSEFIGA

Compound: O=C1Nc2cc(Cl)ccc2/C1=C\c1cccc(C(F)(F)F)c1 [Compound 47, (E)-6-Chloro-3-(3-(trifluoromethyl)benzylidene)indolin-2-one]
- viability Hs817T [1]: undetectable viability
- IC50 in 3 of the 4 additional HCC cell lines tested [2]: low micromolar or submicromolar
- Insulin R Phosphorylation ([3]; serum starved HuH7, 1 μM): 0.75 Arbitrary units
- Insulin R Phosphorylation ([3]; serum starved HuH7, 5 μM): 0.4 Arbitrary units
- Insulin R Phosphorylation ([3]; serum starved HuH7, 10 μM): 0.38 Arbitrary units
- EphA2 Phosphorylation ([4]; serum starved HuH7, 1 μM): 0.09 Arbitrary units
- EphA2 Phosphorylation ([4]; serum starved HuH7, 5 μM): 0.05 Arbitrary units
- EphA2 Phosphorylation ([4]; serum starved HuH7, 10 μM): 0.02 Arbitrary units
- Ron Phosphorylation ([5]; serum starved HuH7, 1 μM): 0.06 Arbitrary units
- Ron Phosphorylation ([5]; serum starved HuH7, 5 μM): 0.05 Arbitrary units
- Ron Phosphorylation ([5]; serum starved HuH7, 10 μM): 0.03 Arbitrary units
- IGF-1R phosphorylation (Y980 and Y1135/1136) by immunoblot [6]: proportional reduction
- EphA2 phosphorylation by immunoblot [7]: proportional reduction
- EGFR phosphorylation by immunoblot [8]: unexpected increase

Reference: patent US20110269812A1, “NOVEL BENZYLIDENE-INDOLINONE AND THEIR MEDICAL AND DIAGNOSTIC USES” (Agency for Science, Technology and Research, priority 2008, published 2011)
